Holding throughout (format): cell-based
One assay has as its target T1, human TLR9 (Homo sapiens, UniProt Q9NR96).
T1 construct: host or cells: HEK-Blue cells
T1 sequence (Q9NR96 26-1032): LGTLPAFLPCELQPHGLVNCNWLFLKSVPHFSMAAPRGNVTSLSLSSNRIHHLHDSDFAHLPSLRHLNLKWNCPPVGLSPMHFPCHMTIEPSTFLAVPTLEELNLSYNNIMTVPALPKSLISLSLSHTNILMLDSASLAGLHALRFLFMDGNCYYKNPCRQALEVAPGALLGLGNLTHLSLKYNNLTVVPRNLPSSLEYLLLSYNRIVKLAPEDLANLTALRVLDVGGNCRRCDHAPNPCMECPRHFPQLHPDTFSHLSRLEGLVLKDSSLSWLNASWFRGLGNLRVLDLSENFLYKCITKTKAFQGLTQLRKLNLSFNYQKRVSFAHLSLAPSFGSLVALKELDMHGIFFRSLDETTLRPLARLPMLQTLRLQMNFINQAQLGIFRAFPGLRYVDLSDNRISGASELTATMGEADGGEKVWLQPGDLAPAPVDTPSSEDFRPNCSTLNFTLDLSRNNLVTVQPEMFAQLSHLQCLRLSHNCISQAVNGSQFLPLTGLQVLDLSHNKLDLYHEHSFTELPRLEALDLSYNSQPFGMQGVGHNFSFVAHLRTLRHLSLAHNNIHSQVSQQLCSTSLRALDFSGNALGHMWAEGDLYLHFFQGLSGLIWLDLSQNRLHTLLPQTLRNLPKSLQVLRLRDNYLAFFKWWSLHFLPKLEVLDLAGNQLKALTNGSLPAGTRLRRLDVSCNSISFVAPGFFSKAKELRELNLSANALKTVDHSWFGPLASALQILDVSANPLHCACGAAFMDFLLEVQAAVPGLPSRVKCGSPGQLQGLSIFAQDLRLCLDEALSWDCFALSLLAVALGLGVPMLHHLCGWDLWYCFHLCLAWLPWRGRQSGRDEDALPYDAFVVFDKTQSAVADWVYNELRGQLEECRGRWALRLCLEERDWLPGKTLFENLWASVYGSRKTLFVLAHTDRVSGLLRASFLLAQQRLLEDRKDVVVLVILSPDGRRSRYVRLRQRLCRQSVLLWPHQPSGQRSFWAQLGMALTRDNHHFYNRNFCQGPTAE
Description: TLR9 inhibition reporter assay (HEK-Blue cells, SEAP reporter, ODN2006 stimulation). Conditions: HEK-Blue cells overexpressing human TLR9, SEAP reporter, ODN2006 5 nM. The method, boiled down: (§1)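 Dose range 0.05 nM–50 μM; 30 min preincubation, RT. Agonists: TLR7 gardiquimod 7.5 μM, TLR8 R848 15.9 μM, TLR9 ODN2006 5 nM. 22 h, 37 °C, 5% CO2. SEAP (IFN-β minimal promoter with NF-κB/AP-1 sites) via colorimetric detection medium; % inhibition vs agonist+DMSO and reference-inhibitor wells.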

The target in a further assay is T2, human TLR8 (Homo sapiens, UniProt Q9NR97).
T2 construct: host or cells: HEK-Blue cells
T2 sequence (Q9NR97 27-1041): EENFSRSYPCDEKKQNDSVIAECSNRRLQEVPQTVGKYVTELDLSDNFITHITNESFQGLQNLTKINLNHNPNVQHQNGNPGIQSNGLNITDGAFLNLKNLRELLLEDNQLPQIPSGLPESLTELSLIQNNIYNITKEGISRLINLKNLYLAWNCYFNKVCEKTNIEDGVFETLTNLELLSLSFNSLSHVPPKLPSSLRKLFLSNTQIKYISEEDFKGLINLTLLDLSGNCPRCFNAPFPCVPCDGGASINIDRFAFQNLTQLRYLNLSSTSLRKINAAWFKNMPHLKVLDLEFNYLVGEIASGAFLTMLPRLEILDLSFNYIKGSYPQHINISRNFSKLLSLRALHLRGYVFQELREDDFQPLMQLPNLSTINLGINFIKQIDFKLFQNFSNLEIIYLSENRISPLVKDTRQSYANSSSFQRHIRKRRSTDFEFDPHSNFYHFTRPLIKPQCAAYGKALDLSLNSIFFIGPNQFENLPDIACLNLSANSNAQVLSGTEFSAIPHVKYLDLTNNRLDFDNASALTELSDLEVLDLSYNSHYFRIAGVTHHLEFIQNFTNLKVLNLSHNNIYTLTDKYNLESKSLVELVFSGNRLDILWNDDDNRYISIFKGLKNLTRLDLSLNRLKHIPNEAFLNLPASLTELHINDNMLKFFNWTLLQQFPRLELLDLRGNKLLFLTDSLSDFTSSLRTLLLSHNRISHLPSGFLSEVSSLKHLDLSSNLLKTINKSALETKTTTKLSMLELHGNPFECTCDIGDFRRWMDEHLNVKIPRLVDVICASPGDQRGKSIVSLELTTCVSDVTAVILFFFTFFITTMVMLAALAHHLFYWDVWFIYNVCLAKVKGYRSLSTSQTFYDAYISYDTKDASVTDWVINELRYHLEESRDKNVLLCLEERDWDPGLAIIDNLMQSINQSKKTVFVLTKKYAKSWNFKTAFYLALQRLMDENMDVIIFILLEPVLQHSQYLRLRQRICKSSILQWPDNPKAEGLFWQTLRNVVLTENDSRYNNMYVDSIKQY
Description: TLR8 inhibition reporter assay (HEK-Blue cells, SEAP reporter, R848 stimulation). Conditions: HEK-Blue cells overexpressing human TLR8, SEAP reporter, R848 15.9 μM. An outline of the steps: as §1
On the technique in general: A reporter such as luciferase makes a cellular process visible.

The target in another assay is T3, human TLR7 (Homo sapiens, UniProt Q9NYK1).
T3 construct: host or cells: HEK-Blue cells
T3 sequence (Q9NYK1 27-1049): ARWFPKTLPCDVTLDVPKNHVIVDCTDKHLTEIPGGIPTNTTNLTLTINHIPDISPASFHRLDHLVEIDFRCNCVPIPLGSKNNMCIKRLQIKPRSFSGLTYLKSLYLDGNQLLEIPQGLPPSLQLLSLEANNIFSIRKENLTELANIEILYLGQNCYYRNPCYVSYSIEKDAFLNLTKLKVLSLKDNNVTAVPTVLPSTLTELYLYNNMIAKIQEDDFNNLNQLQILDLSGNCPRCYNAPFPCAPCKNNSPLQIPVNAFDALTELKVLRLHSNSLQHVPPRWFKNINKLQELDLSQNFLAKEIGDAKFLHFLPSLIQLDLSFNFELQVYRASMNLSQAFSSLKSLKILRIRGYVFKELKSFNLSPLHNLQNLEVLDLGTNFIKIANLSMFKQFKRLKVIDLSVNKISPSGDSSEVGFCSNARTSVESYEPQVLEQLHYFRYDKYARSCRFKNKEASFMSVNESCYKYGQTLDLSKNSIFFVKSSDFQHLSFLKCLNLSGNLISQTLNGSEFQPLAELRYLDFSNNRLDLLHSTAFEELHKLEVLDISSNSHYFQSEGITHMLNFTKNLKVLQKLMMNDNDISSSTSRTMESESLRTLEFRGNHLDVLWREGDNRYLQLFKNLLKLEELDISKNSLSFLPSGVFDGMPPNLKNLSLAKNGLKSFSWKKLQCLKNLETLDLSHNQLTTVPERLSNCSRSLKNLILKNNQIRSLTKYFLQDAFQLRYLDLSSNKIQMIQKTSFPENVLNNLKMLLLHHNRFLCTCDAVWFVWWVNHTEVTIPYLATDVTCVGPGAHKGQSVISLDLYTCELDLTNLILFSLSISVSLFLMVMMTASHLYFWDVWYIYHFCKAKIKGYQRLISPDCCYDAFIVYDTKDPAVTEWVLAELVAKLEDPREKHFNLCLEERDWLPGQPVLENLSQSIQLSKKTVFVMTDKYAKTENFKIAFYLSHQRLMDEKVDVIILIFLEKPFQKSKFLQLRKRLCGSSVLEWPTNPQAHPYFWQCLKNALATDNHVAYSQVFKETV
The experiment in a line: TLR7 inhibition reporter assay (HEK-Blue cells, SEAP reporter, gardiquimod stimulation). The note with it: HEK-Blue cells overexpressing human TLR7, SEAP reporter, gardiquimod 7.5 μM. An outline of the steps: as §1

The text below walks through data of US11878975B2, “Substituted indole compounds useful as TLR inhibitors” (BRISTOL-MYERS SQUIBB COMPANY, priority 2017, dated 2024).

In general, IC50 refers to the point on the concentration scale where inhibition reaches its midpoint. A low value points to greater potency.

As for `Cc1cc(-c2[nH]c3ccc(CCN4CCCCC4)cc3c2C(C)C)cn(C)c1=O` [Example 409], the values for the IC50 against human TLR9, against human TLR8 and against human TLR7 were 15.6 µM, 3 nM and 23 nM, respectively.
On the same counts, the results for `Cc1cc(-c2[nH]c3ccc(CCN4CC[C@@H](F)C4)cc3c2C(C)C)cn(C)c1=O` [Example 410] are 15.6 µM, 0.72 nM and 13 nM.
As for `COc1cc(-c2[nH]c3ccc(CCN4CCOCC4)cc3c2C(C)C)cn2ncnc12` [Example 411], the IC50 against human TLR9 was found to be 8.96 µM; on human TLR8, 7.9 nM; against human TLR7, 7 nM.
Take `COc1cc(-c2[nH]c3ccc(CCN4CCCCC4)cc3c2C(C)C)cn2ncnc12` [Example 412]: the 50% inhibitory concentration (IC50) against human TLR9 was found to be 5.27 µM; against human TLR8 it was 2.9 nM; against human TLR7, 5 nM.
`COc1cc(-c2[nH]c3ccc(CCN4CCN(C)CC4)cc3c2C(C)C)cn2ncnc12` [Example 413]: the IC50 amounted to 2.75 µM against human TLR9, 0.9 nM against human TLR8 and 2 nM on human TLR7.
Turning to `COc1cc(-c2[nH]c3ccc(CCN4CCCC4)cc3c2C(C)C)cn2ncnc12` [Example 414], the IC50 on human TLR9 was 4.51 µM; against human TLR8, 4 nM; at human TLR7, 3 nM.
On the same counts, the results for `Cc1c(-c2[nH]c3ccc(CC4CN(C(=O)CN(C)C)C4)cc3c2C(C)C)cn(C)c(=O)c1C` [Example 415] are 5.02 µM, 38 nM and 40 nM.
Take `Cc1c(-c2[nH]c3ccc(CC4CN(C5CCOCC5)C4)cc3c2C(C)C)cn(C)c(=O)c1C` [Example 416]: the results for the IC50 against human TLR9, against human TLR8 and on human TLR7 were 4.09 µM, 6.4 nM and 115 nM, respectively.
In the case of `Cc1c(-c2[nH]c3ccc(CC4CNC4)cc3c2C(C)C)cn(C)c(=O)c1C` [Example 417], the results for the IC50 on human TLR9, against human TLR8 and on human TLR7 were 2.11 µM, 36 nM and 76 nM, respectively.
In the same order, the values of `Cc1c(-c2[nH]c3ccc(CC4CN(CCS(C)(=O)=O)C4)cc3c2C(C)C)cn(C)c(=O)c1C` [Example 418] are 9.21 µM, 7 nM and 77 nM.
Take `CCc1c(-c2ccc(OC)c(OC)c2)[nH]c2ccc(CC3CCCN3)cc12` (stereo not drawn) [Example 419]: the IC50 against human TLR9 amounted to 3.76 µM; against human TLR8 it was 27 nM; against human TLR7, 418 nM.
`CCc1c(-c2ccnc(C)c2)[nH]c2ccc(CC3CCCN3)cc12` (stereo not drawn) [Example 420]: the IC50 against human TLR9 amounted to 1.06 µM; against human TLR8 it was 38 nM; against human TLR7 it was 306 nM.
In the same order, the values of `CC(C)c1c(-c2ccnc3[nH]ncc23)[nH]c2ccc(CCC3CCNCC3)cc12` [Example 421] are 1.1 µM, 4 nM and 14 nM.
With `CC(C)c1c(-c2ccnc3[nH]ncc23)[nH]c2ccc(/C=C/C3CCNCC3)cc12` [Example 422], the values for the IC50 against human TLR9, against human TLR8 and against human TLR7 were 0.457 µM, 2.1 nM and 13 nM, respectively.
On to `CC(C)c1c(-c2ccnc3[nH]ncc23)[nH]c2ccc(C(C)C3CCNCC3)cc12` (stereo not drawn) [Example 423], for which the IC50 against human TLR9 was 2.08 µM; at human TLR8, 16 nM; against human TLR7, 34 nM.
`CC(C)c1c(-c2ccnc3[nH]ncc23)[nH]c2ccc(CC3CCNCC3)cc12` [Example 424]: the IC50 was found to be 2.1 µM at human TLR9, 2.9 nM on human TLR8 and 24 nM against human TLR7.
With `Cc1cc(-c2[nH]c3ccc(CC4CCCN4C4CCOCC4)cc3c2C(C)C)cn2ncnc12` (stereo not drawn) [Example 425], the IC50 on human TLR9 is 2.49 µM; at human TLR8, 1.4 nM; against human TLR7, 0.72 nM.
Take `Cc1cc(-c2[nH]c3ccc(CC4CCCN4CC(=O)N(C)C)cc3c2C(C)C)cn2ncnc12` (stereo not drawn) [Example 426]: the IC50 on human TLR9 amounted to 11.2 µM; against human TLR8, 13 nM; against human TLR7, 2 nM.
As to `Cc1c(-c2[nH]c3ccc(CC4CCCN4C4COC4)cc3c2C(C)C)cn2cnnc2c1C` (stereo not drawn) [Example 427], the IC50 was determined as 17.6 µM on human TLR9, 19 nM against human TLR8 and 12 nM against human TLR7.
As to `Cc1c(-c2[nH]c3ccc(CC4CCCN4CCS(C)(=O)=O)cc3c2C(C)C)cn2cnnc2c1C` (stereo not drawn) [Example 428], the figures for the IC50 against human TLR9, on human TLR8 and on human TLR7 were 16.2 µM, 15 nM and 49 nM, respectively.
On the same counts, the results for `Cc1c(-c2[nH]c3ccc(CC4CCCN4C4CCOCC4)cc3c2C(C)C)cn2cnnc2c1C` (stereo not drawn) [Example 429] are 6.78 µM, 17 nM and 11 nM.
In the same order, the values of `COc1cc(-c2[nH]c3ccc(CC4CNC4)cc3c2C(C)C)cn2ncnc12` [Example 430] are 0.86 µM, 41 nM and 12 nM.
With `COc1cc(-c2[nH]c3ccc(CC4CN(CCS(C)(=O)=O)C4)cc3c2C(C)C)cn2ncnc12` [Example 431], the figures for the IC50 on human TLR9, against human TLR8 and on human TLR7 were 2.77 µM, 3.5 nM and 2 nM, respectively.
